Laboratory results reported in patent US20130252930A1 (BIOMARIN PHARMACEUTICAL INC., priority 2010, published 2013).
Read-outs that look alike come from different tables or passages of the source.

Tests used:
[1] = target: T1, CYP17 (human testicular microsome) (Homo sapiens, UniProt P05093); experiment: CYP17 enzymatic assay (IC50) (Biological Example 4); format: biochemical; details: human testicular microsome
T1 construct: using microsomal fraction from human testis (Celsis Cat #S00110) as the enzyme source; tissue Celsis S00110; host or cells: human testis microsomal fraction
T1 sequence (P05093 1-508): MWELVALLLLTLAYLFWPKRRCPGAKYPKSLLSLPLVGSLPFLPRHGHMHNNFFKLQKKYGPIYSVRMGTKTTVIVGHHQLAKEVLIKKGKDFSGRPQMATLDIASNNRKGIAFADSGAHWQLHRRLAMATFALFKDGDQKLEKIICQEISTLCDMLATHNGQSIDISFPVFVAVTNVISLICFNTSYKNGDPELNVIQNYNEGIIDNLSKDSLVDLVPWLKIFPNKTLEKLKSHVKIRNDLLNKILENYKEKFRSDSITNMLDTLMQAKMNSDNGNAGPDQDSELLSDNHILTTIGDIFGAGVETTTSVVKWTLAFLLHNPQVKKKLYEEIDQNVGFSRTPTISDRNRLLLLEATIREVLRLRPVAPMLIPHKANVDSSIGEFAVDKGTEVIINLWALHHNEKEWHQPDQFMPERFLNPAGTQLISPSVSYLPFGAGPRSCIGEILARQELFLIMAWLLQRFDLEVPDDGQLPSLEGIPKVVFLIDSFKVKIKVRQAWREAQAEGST

[2] = target: T2, Cyp21 enzyme (Human HEK 293-Cyp21 stable transfected cells) (Homo sapiens, UniProt P08686); experiment: CYP21-HEK293 enzymatic assay (% inhibition at 100 nM) (Biological Example 10); format: cell-based; details: HEK 293-Cyp21 cells
T2 construct: expressed in transfected cells
T2 sequence (P08686 1-495): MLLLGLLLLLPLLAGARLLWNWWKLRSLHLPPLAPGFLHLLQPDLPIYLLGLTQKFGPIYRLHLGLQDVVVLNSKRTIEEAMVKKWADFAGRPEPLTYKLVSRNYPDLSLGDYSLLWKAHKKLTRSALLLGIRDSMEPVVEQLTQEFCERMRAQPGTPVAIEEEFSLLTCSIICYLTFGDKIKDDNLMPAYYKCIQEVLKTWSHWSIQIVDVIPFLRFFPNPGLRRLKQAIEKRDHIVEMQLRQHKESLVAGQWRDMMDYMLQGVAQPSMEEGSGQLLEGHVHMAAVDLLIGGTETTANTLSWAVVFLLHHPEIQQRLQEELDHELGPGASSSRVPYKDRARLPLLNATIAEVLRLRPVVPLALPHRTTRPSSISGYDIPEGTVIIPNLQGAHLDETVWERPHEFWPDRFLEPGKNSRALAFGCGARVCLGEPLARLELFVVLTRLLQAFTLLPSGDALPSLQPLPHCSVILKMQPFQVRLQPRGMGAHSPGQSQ
Experimental: Proceeding using methods similar to those described in Biological Example 11, the percent inhibition at 100 nM was measured.
This assay was used to determine compound activity against Cyp21 enzyme. Human HEK 293-Cyp21 stable transfected cells (maintained in complete growth media DMEM+10% FBS, supplemented with 125 ug/mL Hygromycin) were seeded in a 96-well plate at 20,000 cells/well/100 uL in DMEM plus 10% FBS and allowed to attach overnight. The next day, 20 μL medium was carefully removed and 10 μL of 10× pre-made compounds in DMEM+10% FBS+10% methanol was transferred to the wells to final concentrations of 1000, 100, 10, 1, or 0.1 nM. Mock treatment was 1% methanol in growth media and the cells were left at 37° C., 5% CO2 for 5 hr. After the incubation, 10 μL of substrate progesterone (Sigma) was added to the wells to make a final concentration of 10 μM. The cells were incubated the cells at 37° C. for 20 hr. At the end of incubation, 90 μL of conditioned media was removed to measure DOC level by ELISA.
Preparation of the DOC ELISA: 100 μL of coating buffer (0.025M PBS pH 7.4) containing 200 ng/mL DOC-3-carboxymethyloxime-BSA (Steraloids. inc, Cat#3469-000) was added to each well of a 96-well plate and incubated overnight at 4° C. The next day, the plates were washed twice with 250 μl of wash solution (0.015M PBS pH 7.4 containing 0.05% Tween 20). After being washed, the wells were blocked with 250 μL blocking buffer (3% BSA in 0.025M PBS, pH 7.4) at 37° C. for 2 h. The plates were washed again 3 times as before, and then 90 μL of sample /standards (prepared in complete growth media) was added into the appropriate wells followed by 10 μL of antibody solution (1:450 rabbit anti-DOC in 0.6% BSA/PBS). The plates were incubated at room temperature for 2 h on a shaker. The contents of the wells were removed and the plate was washed 4 times. After the final wash, 100 μL of secondary antibody (1:12000 HRP-goat-anti-rabbit IgG conjugate 0.6% BSA/PBS) was added into each well. The plate was incubated at 30° C. for 45 min. The plate was washed again 4 times and 100 μL of TMB substrate solution was added to each well. The plate was incubated at room temperature for 10 min. 100 μL of stop solution was added to each well and the optical density was read at 450 nm.
The mean absorbance value for each sample was used to determine the corresponding concentration from the standard curve. Data was analyzed with “log(antagonist) vs response variable slope” under “non-linear regression analysis” using Prism5 software.

[3] = target: T1, CYP17 (human testicular microsome); experiment: CYP17 enzymatic assay (% inhibition at 10 nM), version 1 (Biological Example 5); format: biochemical; details: 10 nM compound, DHEA by ELISA, read-out: Biological Example No. 5: CYP17 percent inhibition at 10 nM (version 1)
[4] = target: T1, CYP17 (human testicular microsome); experiment: CYP17 enzymatic assay (% inhibition at 1 nM) (Biological Example 12); format: biochemical
[5] = test system: rat Cyp11B enzyme (rat adrenal mitochondria); experiment: CYP11B enzymatic assay (% inhibition at 100 nM) (Biological Example 9); format: biochemical; details: for CYP11B enzymatic assay % inhibition at 100 nM (Biological Example No. 9): compound at 100 nM
Experimental: Adrenals excised from Sprague Dawley rats were homogenized, and mitochondria fraction were prepared by a series of centrifugation as described in Shuji Ohno, et al. J. of Steroid Biochemistry & Molecular Biology 2002, 80, 355-363. Prepared mitochondria protein was washed and resuspended in Buffer B (0.21 M mannitol, 70 mM sucrose, 5 mM MgCl2, 0.5 mM CaCl2, 20 mM Tris-HCl (pH 7.4) and 1 mM DTT, […]). The protein concentration was determined by BCA assay and stored as 10 μL aliquots at −80° C.
The rat Cyp11B enzyme assay was performed in 96-well plates. Typical assays were carried out in total 50 μL volume that included test compounds at 100 nM concentration, 1× Buffer B, 0.5 mM NADPH, 0.1 μM 11-deoxycortisol, and 2 μL of prepared rat adrenal mitochondria (added last). Reaction without test compound served as positive control and reaction without NADPH served as negative control. Reactions were allowed to incubate at 37° C. for 60 min with gentle shaking. The reaction was stopped by directly applying the enzymatic reaction mixture (1:5 diluted in ELISA assay buffer) to ELISA plate for evaluation of cortisol concentration according to manufacturer's protocol (Assay Design).
The mean absorbance value for each sample was used to determine the corresponding concentration from the standard curve. Amount of cortisol in the negative control (reaction that dis not include NADPH) was subtracted from total cortisol. Percent inhibition (inhibition %) of the compound was calculated using normalized cortisol concentration based on following formula: 100−([Cortisol] of compound/[Cortisol] of positive control *100).

CYP17 (H295R cells) = target: T3, CYP17 (H295R cells) (Homo sapiens, UniProt P05093); experiment: CYP17 cellular assay (IC50), testosterone in H295R cells (Biological Example 7); format: cell-based; details: H295R cells
T3 construct: endogenous in cells; host or cells: H295R cells
T3 sequence (P05093 1-508): T1 sequence (P05093 1-508)
Summary of the method: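 Testosterone in the medium was quantified by ELISA after 24 h at 37 °C with test compound (final 100, 10, 1, 0.1 nM; serum-free DMEM/F-12, ITS+, 0.1% methanol). The H295R cells had been seeded and grown 24 h beforehand; vehicle wells served as control.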

[6] = Human liver microsome stability assay (Biological Example 8b); details: liver microsomes, pH 7.4
Experimental: The reaction was started with addition of excess NADPH (5 mg/mL, 15 μL in 0.1 M potassium phosphate buffer, 1.0 mM EDTA, pH 7.4), the total volume is 45 μL (compound final concentration was 1 μM). […] 50 μL of the supernatant was transferred from each well into a 96-well sample plate containing 50 μL of ultra-pure water (Millipore) for LC-MS/MS analysis.

[7] = target: T2, Cyp21 enzyme (Human HEK 293-Cyp21 stable transfected cells); experiment: CYP21-HEK293 enzymatic assay (IC50) (Biological Example 11); format: cell-based; details: HEK 293-Cyp21 cells; read-out: CYP21-HEK293 enzymatic assay IC50 (Biological Example No. 11)
[8] = read-out: Biological Example No. 4: CYP17 enzymatic assay IC50
[9] = compound at 100 nM, read-out: Biological Example No. 10: CYP21-HEK293 enzymatic assay % inhibition at 100 nM
[10] = 100 nM compound, read-out: Biological Example No. 10: CYP21-HEK293 percent inhibition at 100 nM
[11] = 1 nM compound, DHEA by ELISA, read-out: Biological Example No. 12: CYP17 percent inhibition at 1 nM
[12] = compound at 1 nM, read-out: CYP17 enzymatic assay % inhibition at 1 nM (Biological Example No. 12)

C[C@]12CCC3C(CCC4=CC(=O)CC[C@@]43C)C1=CC=C2c1cncc(N)c1 (stereo partly drawn) [Compound 360, (10R,13S)-17-(5-aminopyridin-3-yl)-10,13-dimethyl-6,7,8,9,10,11,12,13-octahydro-1H-cyclopenta[a]phenanthren-3(2H)-one] showed an IC50 [1, 8] of less than 11 nM and an inhibition at 0.1 µM [2, 9] of less than 30%.
Compound CCc1cncc(C2=CC[C@H]3[C@@H]4CCC5=CC(=O)N(C)CC[C@]5(C)[C@H]4CC[C@]23C)c1 [Compound 145] has an inhibition at 0.01 µM [3] of 50 to 80% and an inhibition at 0.1 µM [2, 10] of no less than 30%.
In the case of C[C@]12CCC(=O)C=C1CCC1C2CC[C@]2(C)C(c3cccnc3)=CCC12 (stereo partly drawn) [B, (10R,13S)-10,13-dimethyl-17-(pyridin-3-yl)-6,7,8,9,10,11,12,13,14,15-decahydro-1H-cyclopenta[a]phenanthren-3(2H)-one, reference compound], the inhibition at 0.001 µM [4, 11] is reported as greater than 50% and the inhibition at 0.1 µM [2, 10] is reported as no less than 30%.
CC1CC2C3=CC=C(c4cncc(N)c4)[C@@]3(C)CCC2[C@@]2(C)CCC(=O)C=C12 (stereo partly drawn) [Compound 329, (10R,13S)-17-(5-aminopyridin-3-yl)-6,10,13-trimethyl-6,7,8,9,10,11,12,13-octahydro-1H-cyclopenta[a]phenanthren-3(2H)-one] showed an IC50 [1, 8] of less than 11 nM and an inhibition at 0.1 µM [2, 9] of less than 30%.
In the case of C[C@]12CCC(=O)C=C1CC[C@@H]1[C@@H]2CC[C@]2(C)C(c3cccnc3)CC[C@@H]12 (stereo partly drawn) [Compound 419, (10R,13S)-10,13-dimethyl-17-(pyridin-3-yl)-6,7,8,9,10,11,12,13,14,15,16,17-dodecahydro-1H-cyclopenta[a]phenanthren-3(2H)-one], the inhibition at 0.001 µM [4, 12] is reported as 10 to 50% and the inhibition at 0.1 µM ([2]; compound at 100 nM, read-out: CYP21-HEK293 enzymatic assay % inhibition at 100 nM (Biological Example No. 10)) is reported as no less than 30%.
For Cc1ccncc1C1=CCC2C3CN(C)C4=CC(=O)CC[C@]4(C)C3CC[C@]12C (stereo partly drawn) [Compound 444, (9aR,11aS)-5,9a,11a-trimethyl-1-(4-methylpyridin-3-yl)-3b,4,5,8,9,9a,9b,10,11,11a-decahydro-3H-cyclopenta[i]phenanthridin-7(3aH)-one], the “CYP11B enzymatic assay % inhibition at 100 nM (Biological Example No. 9)” value [5] was “U (U means the compound had a percent inhibition of greater than or equal to 32%)”, the inhibition at 0.001 µM [4, 12] was 10 to 50% and the IC50 (CYP17 (H295R cells); testosterone, read-out: CYP17 cellular assay IC50 (Biological Example No. 7)) was less than 15 nM.
With C[C@]12CC[C@H](O)CC1=CC[C@@H]1[C@@H]2CC[C@]2(C)C(c3cccnc3)=CC[C@@H]12 [C, (3S,8R,9S,10R,13S,14S)-10,13-dimethyl-17-(pyridin-3-yl)-2,3,4,7,8,9,10,11,12,13,14,15-dodecahydro-1H-cyclopenta[a]phenanthren-3-ol, reference compound] the half-life at 1 μM [6] was 1 to 50 min, the “Biological Example No. 9: CYP11B percent inhibition at 100 nM” value ([5]; 100 nM compound, cortisol by ELISA) was “T (T means the compound had a percent inhibition of less than 32% when tested at 100 nM)” and the inhibition at 0.01 µM [3] was greater than 80%. For the same compound, the inhibition at 0.001 µM [4, 11] was greater than 50%, the IC50 (CYP17 (H295R cells); testosterone by ELISA, 24 hours, read-out: Biological Example No. 7: CYP17 cellular assay IC50) was less than 15 nM and the IC50 ([1]; DHEA by ELISA, read-out: Biological Example No. 4: CYP17 enzymatic assay IC50) was less than 11 nM.
In the case of CCCC(=O)N1CCC2CC[C@@H]3[C@H](CC[C@]4(C)C(n5ccnc5)=CC[C@@H]34)[C@@]2(C)CC1 (stereo partly drawn) [Compound 434, 1-((5aS,7aS)-8-(1H-imidazol-1-yl)-5a,7a-dimethyl-1,2,5,5a,5b,6,7,7a,10,10a,10b,11,12,12a-tetradecahydrocyclopenta[5,6]naphtho[1,2-d]azepin-3(4H)-yl)butan-1-one], the IC50 [7] is reported as greater than 1000 nM, the “CYP11B enzymatic assay % inhibition at 100 nM (Biological Example No. 9)” value [5] is reported as “T (T means the compound had a percent inhibition of less than 32% when tested at 100 nM)” and the inhibition at 0.001 µM [4, 12] is reported as greater than 50%. It also gave an IC50 ([1]; read-out: CYP17 enzymatic assay IC50 (Biological Example No. 4)) of less than 11 nM.
Cc1cncc(C2=CC=C3[C@@H]4CCC5=CC(=O)N(C)CC[C@]5(C)[C@H]4CC[C@]23C)c1 [Compound 160] gave an inhibition at 0.01 µM [3] of 50 to 80% and an inhibition at 0.1 µM [2, 10] of less than 30%.
